The values that follow come from ChEMBL document CHEMBL1138504, “Lipophilicity of basic drugs measured by hydrophilic interaction chromatography” (J Med Chem, 2009).

For data set [1] the following is noted: buffer, pH 2.
Data set [2] in a line: physchem.
The conditions of data set [3]: buffer, pH 2. The source holds these as a separate data set.
Data set [4] is described as follows: physchem. The following applies: octanol/water.
The conditions of data set [5]: octanol/water.

As for `CN(C)Cc1ccccc1`, the “log K” value in data set [1] is given as -0.23; in data set [3], 0.43. Also, the pKa (usually the negative logarithm of the acid dissociation constant) in the data set “physchem [2]” was found to be 9.02. Also, the lipophilicity (logP) (in general, the decadic logarithm of the partition coefficient of the neutral form, usually between octanol and water) in “physchem [4]” was determined as 1.91.

With `C=CCc1ccccc1OCC(O)CNC(C)C` (stereo unspecified) [ALPRENOLOL], the figures for the “log K” value in data set [1] and in data set [3] were -0.36 and 2.02, respectively. In data set [5], this compound showed a logPc of 0.25.

`CN1CCc2cccc3c2[C@H]1Cc1ccc(O)c(O)c1-3` [APOMORPHINE]: the entries for the “log K” value in data set [1] and in data set [3] were 0.33 and 2.74, respectively. In the data set “physchem [4]”, this compound returned a logP of 2.49.

Take `CC(C)NCC(O)COc1ccc(COCCOC(C)C)cc1` (stereo unspecified) [BISOPROLOL]: the “log K” value is recorded as -0.41 in data set [1] and 1.17 in data set [3]. Further, in data set [5], the logPc is given as -1.22.

For the compound `CCCCN` [BUTYLAMINE], the “log K” value is 0.29 in data set [1] and 0.756 in data set [3]. The pKa in “physchem [2]” was determined as 10.8.

For the compound `CC(C)NCC(O)COc1cccc2[nH]c3ccccc3c12` (stereo unspecified) [CARAZOLOL], the results for the “log K” value in data set [1] and in data set [3] were -0.01 and 2.97, respectively. The compound further came in with a logPc in data set [5] of 0.77. Further, in the data set “physchem [2]”, the pKa came out at 9.52.

For the compound `COc1ccccc1OCCNCC(O)COc1cccc2[nH]c3ccccc3c12` (stereo unspecified) [CARVEDILOL], the “log K” value in data set [1] is listed as -0.2; in data set [3] it was 3.1. In data set [5], this compound gave a logPc of 1.92. This compound also displayed a pKa in the data set “physchem [2]” of 7.97.

On to `Cc1cccc(C)c1NC(=O)C1CCCCN1C` (stereo unspecified) [MEPIVACAINE], for which the figures for the “log K” value in data set [1] and in data set [3] were -0.18 and 0.85, respectively. This compound gave a pKa in the data set “physchem [2]” of 7.6.

As for `CC([C@H](O)c1ccccc1)N(C)C` (stereo partly specified) [METHYLEPHEDRINE], the “log K” value in data set [1] is recorded as -0.14; in data set [3], 0.64. In “physchem [2]”, the pKa was found to be 9. In “physchem [4]”, the logP stood at 1.55.

Regarding `CC(=O)Oc1c(C)cc(OCC(O)CNC(C)C)c(C)c1C` (stereo unspecified) [METIPRANOLOL], the “log K” value in data set [1] is -0.5; in data set [3] it was 1.57. In addition, the logPc in data set [5] is -0.26. The same compound displayed a pKa in the data set “physchem [2]” of 9.54.

For `COCCc1ccc(OCC(O)CNC(C)C)cc1` (stereo unspecified) [METOPROLOL], the “log K” value was -0.27 in data set [1] and 1.1 in data set [3]. The logPc in data set [5] is given as -1.1.

Turning to `NCCO` [MONOETHANOLAMINE], the “log K” value in data set [1] is on record as 1.1; in data set [3], -0.54. This compound returned a pKa in the data set “physchem [2]” of 0.92.

Regarding `C1COCCN1` [MORPHOLINE], the entries for the “log K” value in data set [1] and in data set [3] were 0.48 and -0.27, respectively.

As to `CC(=O)Oc1cc(C(C)C)c(OCCN(C)C)cc1C` [MOXISYLYTE], the entries for the “log K” value in data set [1] and in data set [3] were -0.86 and 1.53, respectively. For the same compound, in the data set “physchem [2]”, the pKa came out at 8.72.

As for `CC(C)(C)NCC(O)COc1cccc2c1CC(O)C(O)C2` (stereo unspecified) [NADOLOL], the “log K” value is 0.5 in data set [1] and 0.59 in data set [3]. The logP in “physchem [4]” amounted to 0.81.

Turning to `CN1CCC[C@H]1c1cccnc1` [NICOTINE], the “log K” value is 0.14 in data set [1] and -0.02 in data set [3]. This compound also returned a pKa in the data set “physchem [2]” of 3.4. The compound also came in with a logP in the data set “physchem [4]” of 1.34.

For the compound `NCC(O)c1ccc(O)cc1` (stereo unspecified) [OCTOPAMINE], the “log K” value in data set [1] amounted to 1.15; in data set [3] it was 0.44. Besides, the pKa in the data set “physchem [2]” came out at 8.81.

On to `C=CCOc1ccccc1OCC(O)CNC(C)C` (stereo unspecified) [OXPRENOLOL], for which the “log K” value is recorded as -0.34 in data set [1] and 1.43 in data set [3]. In data set [5], this compound displayed a logPc of -0.13. For the same compound, the pKa in the data set “physchem [2]” was 9.57.

In the case of `CC(C)(C)NC[C@H](O)COc1ccccc1C1CCCC1` [PENBUTOLOL], the “log K” value in data set [1] is -0.51; in data set [3], 3.08. In addition, in data set [5], the logPc is recorded as 1.32. This compound also registered a pKa in the data set “physchem [2]” of 9.92. This compound also came in with a logP in “physchem [4]” of 4.62.

As for `CC(C)NCC(O)COc1cccc2[nH]ccc12` (stereo unspecified) [PINDOLOL], the “log K” value is given as 0.08 in data set [1] and 1.63 in data set [3]. Also, in data set [5], the logPc is -1.32.

Consider `CCCNC(C)C(=O)Nc1ccccc1C` (stereo unspecified) [PRILOCAINE], for which the results for the “log K” value in data set [1] and in data set [3] were -0.17 and 0.93, respectively. Further, the pKa in the data set “physchem [2]” is 7.8.

As to `CCN(CC)CCOC(=O)c1ccc(N)cc1` [PROCAINE], the results for the “log K” value in data set [1] and in data set [3] were -0.26 and 1.05, respectively. For the same compound, the pKa in the data set “physchem [2]” stood at 9.

Turning to `CC(C)NCC(O)COc1cccc2ccccc12` (stereo unspecified) [PROPRANOLOL], the “log K” value in data set [1] is recorded as -0.19; in data set [3], 2.71.

In the case of `C1COC(NC(C2CC2)C2CC2)=N1` [RILMENIDINE], the entries for the “log K” value in data set [1] and in data set [3] were -0.41 and 0.88, respectively. The compound also showed a pKa in “physchem [2]” of 9.22. In “physchem [4]”, this compound came in with a logP of 1.7.

As to `NCCc1c[nH]c2ccc(O)cc12` [SEROTONIN], the “log K” value in data set [1] is reported as 1.15; in data set [3], 1.19.

As to `O=C1C[C@@H]2OCC=C3CN4CC[C@]56c7ccccc7N1[C@H]5[C@H]2[C@H]3C[C@H]46` [STRYCHNINE], the entries for the “log K” value in data set [1] and in data set [3] were 0.06 and 1.18, respectively.

In the case of `CC(C)(C)NC[C@H](O)COc1nsnc1N1CCOCC1` [TIMOLOL], the “log K” value in data set [1] is reported as 0.08; in data set [3] it was 0.9. For the same compound, the logPc in data set [5] is -0.94. The pKa in the data set “physchem [2]” was determined as 9.53. For the same compound, the logP in “physchem [4]” turned out to be 2.12.

Take `COC(=O)[C@@H](N)Cc1ccc(O)cc1` [TYROSINE METHYL ESTER]: the “log K” value in data set [1] is given as 0.57; in data set [3], 0.26.
